According to article PMC4738272 (Scientific Reports, 2016):
“And” between values parts separate entries of the source, which are not always exact repeats. Equal entries are not always repeated. “Also recorded” adds a separate entry of the source.

Key:
Liver [1] = system: Liver; design: method as in Literature; conditions: general toxic effects reported in the literature; ref Literature; cited from earlier work
Neurons [2] = system: Neurons; design: method as in Literature; conditions: general toxic effects reported in the literature; ref Literature; cited from earlier work
Muscle = system: Muscle; design: method as in Literature; conditions: general toxic effects reported in the literature; ref Literature; cited from earlier work
HepG2/C3A [3] = experiment: Human Serum Albumin quantification (ELISA), liver fraction of 4-organ system; assay type: cell-based; conditions: 4-organ co-culture under flow, 48 h drug treatment, vs control, DOX 5 μM, ATR 100 μM, VPA 2 mM, APAP 5 mM, AMAP 5 mM
Method: Human Serum Albumin (HSA) production from the liver fraction was tracked throughout the co-culture, by measuring the HSA concentration in the supernatant of the culture as it represents liver protein anabolism. Samples were collected from the exchanged medium (1.2 mL) and stored at −20 °C until analysis. One freeze-thaw cycle occurred before samples were analyzed following manufacturers’ instructions provided in the ELISA Starter Accessory Kit (Bethyl Laboratories Inc, Cat #: E101). Samples were diluted as necessary in sample conjugate/diluent buffer to ensure readings measured within the range of the standard curve. The standard curve was prepared by serial dilutions of human reference serum in sample conjugate/diluent buffer (0–1600 ng/ml).
Final HSA concentrations were calculated in an excel file by first removing the average OD reading measured for blanks from average sample and standard OD readings. Concentrations of standard dilutions were plotted against average OD values measured in XY scatter plots. A standard curve was created by adding an order of 2 polynomial trendline to XY scatter plots and selecting the option to display the equation of the trendline, as well as the R^2 value, on each scatter plot (for ease of analysis HSA sigmoidal curves were split into 3 standard curves with HSA concentration ranges of 0–200 ng/ml, 200–800 ng/ml and […]). Quadratic equations were rearranged to make X (sample HSA concentration) the unknown variant. Y values (OD values) and a/b/c constants generated from trendline equations were inputted into rearranged quadratic equations per assay. HSA concentrations calculated were corrected accordingly for any differences in culture final volumes, sample dilutions during assays and cells number.

[4] = system: iPSc differentiated Cardiomyocytes; experiment: Cardiac beating frequency from video recordings; assay type: cell-based, human; conditions: 4-organ co-culture under flow, 48 h drug treatment, day 7, vs control; for Cardiomyocyte beating rate (beat frequency), increase: ATR 100 μM, VPA 2 mM, APAP 5 mM; for Cardiomyocyte beating rate (beat frequency), decrease: DOX 5 μM, AMAP 5 mM
Method: Seven or fourteen days after the co-culture, cardiac beating frequency was quantified from video recordings of three different areas of each of the cMEA surfaces, where the cardiomyocytes culture where located. Surfaces were located in a 37 °C bath platform containing co-culture medium with 50 mM HEPES on the stage of a Zeiss Axioscope 2FS upright microscope. Beats were counted in a period of 10 s, and the average number of 3 values was obtained. Drug effect was plotted as percentage of change compared to the control conditions.

[5] = system: iPSc differentiated Cardiomyocytes; experiment: MTT viability of cardiac module in 4-organ system; conditions: 4-organ co-culture under flow, serum-free medium, 48 h drug treatment, day 7, vs control, DOX 5 μM, ATR 100 μM, VPA 2 mM, APAP 5 mM, AMAP 5 mM
Text: (§1) The four organ in vitro systems were assembled, on day 0, by placing the corresponding surfaces cell side up in a specific chamber of the housing (liver coverslip into chamber 1, cardiac coverslips and cantilevers into chambers 2 and 4, muscle coverslips into chamber 5, and neuron coverslips into chamber 3 and they were then topped with the serum-free co-culture medium (1X Neurobasal Medium, 1X B27, 1X AB/AM, 1X Glutamax (all from Life Technologies)) before locking the system. Right after assembling, the medium was completely replaced with 4 mL of the co-culture defined serum-free medium and the systems placed on a rocking platform inside an incubator. Platforms were checked every day by inspecting for expected cell morphology inside the system and by replacing medium (1.2 mL total volume) from the two reservoirs (30% of the total volume was replaced) with fresh medium. Drug incubation was initiated on day 5 of the co-culture by addition of the drug through the reservoir closer to the liver chamber (no. 1), allowing a first contact of the drug with the liver. 20 μL of the drug stock solution (or vehicle) to achieve a working concentration in 4 mL of total volume in the platform was utilized. On day 6, after 24 hours of drug incubation, 6 μL of the drug stock solution (or vehicle) was added to the fresh medium exchange volume (1.2 mL). After 48 hour of drug incubation, on day 7, systems were disassembled to test organ functionality that same day. For mono-culture conditions, surfaces remained in a 12-well plated with 1 mL of the co-culture defined serum-free medium maintained by daily replacement of half volume.
(§2) Seven days after the initiation of the co-culture, viability of each organ chamber, except for neurons, was evaluated through an MTT assay. […] Cell viability was measured at 570 nm in a Synergy HT plate reader and KC4 software. The results were expressed as the percentage of cell survival relative to the control (untreated or incubated with vehicle). The neuronal fraction viability was evaluated through morphological analysis throughout the co-culture experiment as the final coverslips were used for patch-clamp electrophysiology. Phase images (10X) where obtained every day of the co-culture. Neuronal viability was evaluated by cell morphology integrity and by cell count from day 1 to day 14.

CYP3A4 = experiment: Cytochrome p450 3A4 enzymatic activity in liver mono-culture; assay type: cell-based, human; conditions: ATR 100 μM, 48 hour incubation, data not shown
Method: Enzymatic products from 1A1 were run with LDR, and separately, 3A4 were run with LDR containing esterases. Enzymatic activities were finally represented as D-Luciferin picomoles produce in 1 hour by 1 × 10^6 cells.

Human Skeletal Myofibers [6] = experiment: Myotube stimulated contraction (binary: contracting or not); assay type: cell-based; conditions: 4-organ co-culture under flow, 48 h drug treatment, day 7, broad-field electrical stimulation, DOX 5 μM, ATR 100 μM, VPA 2 mM, APAP 5 mM, AMAP 5 mM
Method: Myotube contraction in coverslips was evaluated after the co-culture was finalized. Individual surfaces were evaluated as previously reported in the group. Drugs effects were quantify in a binary code mode, cells were or were not contracting.

neurons [7] = experiment: Neuronal viability by morphological analysis and cell count in 4-organ system; conditions: 4-organ co-culture under flow, serum-free medium, 48 h drug treatment, day 7, vs control, DOX 5 μM, ATR 100 μM, VPA 2 mM, APAP 5 mM, AMAP 5 mM
Text: as §1, §2

Cardiomyocytes = system: Cardiomyocytes; design: method as in Literature; conditions: general toxic effects reported in the literature; ref Literature; cited from earlier work
neurons [8] = experiment: Neuron electrophysiology recording (patch clamp); assay type: cell-based, human; conditions: 4-organ co-culture under flow, 48 h drug treatment, day 7, vs control, DOX 5 μM, ATR 100 μM; for Neuronal repetitive and spontaneous firing ability / Neuronal ion currents and firing of stimulated action potentials / Neuronal electrophysiology, overall effect: APAP 5 mM; for Neuronal repetitive and spontaneous firing ability / Neuronal electrophysiology, overall effect: AMAP 5 mM; for Neuronal electrophysiology, overall effect: VPA 2 mM
Text: Electrophysiological properties of neuron cultures where recorded on the last day of co-culture following a previously described method. Values of firing, repetitive firing, spontaneous firing, inward sodium current, outward potassium current, action potential peak voltage and the resting membrane potential, characterized the mature functionality of neurons in the in vitro system. Drug alterations of the neuronal electrophysiology are discussed in this manuscript.

Human Skeletal Myofibers [9] = experiment: MTT viability of skeletal muscle module in 4-organ system; conditions: 4-organ co-culture under flow, serum-free medium, 48 h drug treatment, day 7, vs control, DOX 5 μM, ATR 100 μM, VPA 2 mM, APAP 5 mM, AMAP 5 mM
Text: as §1, §2

HepG2/C3A [10] = experiment: Urea quantification, liver fraction of 4-organ system; assay type: cell-based, human; conditions: 4-organ co-culture under flow, 48 h drug treatment, vs control, DOX 5 μM, ATR 100 μM, APAP 5 mM, AMAP 5 mM
HepG2/C3A [11] = experiment: MTT viability of liver module in 4-organ system; assay type: cell-based, human; conditions: 4-organ co-culture under flow, serum-free medium, 48 h drug treatment, day 7, vs control, DOX 5 μM, ATR 100 μM, VPA 2 mM, APAP 5 mM, AMAP 5 mM
Text: as §1, §2

neuron = system: neuron; design: method as in PMID 17298386; conditions: 1uM DOX for 24 hours; read-out: Neuron viability drop; cited from earlier work
skeletal muscle cells = experiment: Bright-field imaging of skeletal muscle morphology in 4-organ system; assay type: cell-based, human; conditions: 4-organ co-culture under flow, DOX 5 μM, 48 h
Text: Cell morphology and function were studied each day with an inverted bright-field microscope (Carl Zeiss) using a 10X objective. This working distance allowed the imaging of the cells in the specific surfaces inside the housing. Images of each fraction and systems were collected with an Axio Cam and AxioVision AC software to study morphological or functional changes in the co-culture chamber for each organ.

[12] = cited from earlier work
liver [13] = conditions: patients undergoing DOX treatment; cited from earlier work

| Compound | Drug effects on cell functionality, Liver, Literature (Liver [1]) | Drug effects on cell viability, Liver, Literature (Liver [1]) | Drug effects on cell functionality, Neurons, Literature (Neurons [2]) | Drug effects on cell viability, Neurons, Literature (Neurons [2]) | Drug effects on cell functionality, Muscle, Literature (Muscle) | Drug effects on cell viability, Muscle, Literature (Muscle) | HSA (albumin) production, increase (HepG2/C3A [3]) | Cardiomyocyte viability, loss [5] | Skeletal muscle loss of contractile ability (share of cultures in which contraction ceased) (Human Skeletal Myofibers [6]) | Neuronal cell viability, loss (cell loss by morphology/cell count) (neurons [7]) | Drug effects on cell functionality, Cardiomyocytes, Literature (Cardiomyocytes) | Drug effects on cell viability, Cardiomyocytes, Literature (Cardiomyocytes) | Neuronal action potential peak voltage and resting membrane potential (DOX also peak ionic currents) (neurons [8]) | Neuronal electrophysiology, overall effect (neurons [8]) | Skeletal muscle viability, loss (Human Skeletal Myofibers [9]) | further results |
| --- | --- | --- | --- | --- | --- | --- | --- | --- | --- | --- | --- | --- | --- | --- | --- | --- |
| CC(C)c1c(C(=O)Nc2ccccc2)c(-c2ccccc2)c(-c2ccc(F)cc2)n1CC[C@@H](O)C[C@@H](O)CC(=O)O [Atorvastatin] | May be compromised | Toxicity reported | Toxic at higher concentration( ^**) | Toxic at higher concentration( ^**) | Compromised | Toxicity reported | not affected | No toxic effect observed | 50% loss of contractile ability | 47 ± 14% loss of cell viability | Cardio-protective effect | Cardio-protective effect | changes | Electrophysiology affected | 30 ± 15% loss | HSA (albumin) production, increase (HepG2/C3A [3]; listed as ATR): no change; Cardiomyocyte beating rate (beat frequency), increase [4]: 43 ± 16% increase in beating rate; Cardiomyocyte beating rate (beat frequency), increase ([4]; listed as ATR): 43 ± 16%; Cardiomyocyte viability, loss ([5]; listed as ATR): no reduction; CYP3A4 activity induction (CYP3A4): 12 fold; Skeletal muscle loss of contractile ability (share of cultures in which contraction ceased) (Human Skeletal Myofibers [6]; listed as ATR): 50%; Neuronal cell viability, loss (cell loss by morphology/cell count) (neurons [7]; listed as ATR): 47 ± 14% and 47 ± 16%; Neuronal repetitive and spontaneous firing ability (neurons [8]; listed as ATR): altered ability; also recorded: no repetitively firing cells were observed; Neuronal ion currents and firing of stimulated action potentials (neurons [8]; listed as ATR): typical ion currents and stimulated firing APs; also recorded: regular AP activity was recorded with good sodium and potassium currents; Skeletal muscle viability, loss (Human Skeletal Myofibers [9]; listed as ATR): 30 ± 15% |
| COc1cccc2c1C(=O)c1c(O)c3c(c(O)c1C2=O)C[C@@](O)(C(=O)CO)C[C@@H]3O[C@H]1C[C@H](N)[C@H](O)[C@H](C)O1 [Doxorubicin] | May be compromised | Toxicity reported | Neurologic disturbances ( ^**) | Neurologic disturbances ( ^**) | Toxicity at higher concentrations | Toxicity at higher concentrations | HSA and Urea not affected( ^*) | 65 ± 6% loss | 60% loss of contractile ability | 33 ± 13% loss of cell viability | Compromised | Toxicity reported | not significantly different | Electrophysiology affected | Toxicity not observed | Urea production, increase (HepG2/C3A [10]): HSA and Urea not affected( ^*); Urea production, increase (HepG2/C3A [10]; listed as DOX): No effects; Liver (hepatocyte) cell viability, loss (HepG2/C3A [11]): 49 ± 10% loss; Liver (hepatocyte) cell viability, loss (HepG2/C3A [11]; listed as DOX): 49 ± 10%; cytotoxicity (neuron): 25%; HSA (albumin) production, increase (HepG2/C3A [3]; listed as DOX): No effects; Cardiomyocyte beating rate (beat frequency), decrease [4]: 47 ± 9% decrease in beating rate; Cardiomyocyte beating rate (beat frequency), decrease ([4]; listed as DOX): 47 ± 9%; Cardiomyocyte viability, loss ([5]; listed as DOX): 65 ± 6%; Muscle morphology (skeletal muscle cells): not affected; Patient plasma concentrations typically detected ([12]; patients): 0.5 to 1 µM; Concentration in mitochondria relative to plasma levels ([12]; typically): 100 times; Patients undergoing treatment that show hepatotoxicity (liver [13]): 40%; Skeletal muscle loss of contractile ability (share of cultures in which contraction ceased) (Human Skeletal Myofibers [6]; listed as DOX): 60%; Neuronal cell viability, loss (cell loss by morphology/cell count) (neurons [7]; listed as DOX): 33 ± 18% and 33 ± 13%; Neuronal ion currents and firing of stimulated action potentials (neurons [8]): no changes; Neuronal repetitive and spontaneous firing ability (neurons [8]; listed as DOX): not observed after treatment |
